Assay results taken from paper PMC4166032 (Bioconjugate Chemistry, 2014).
Where two headings read alike, the source gives them in different places.

Key:
PXR = conditions: cited from earlier work; for IC50: read-out: reported IC50, BODIPY FL vinblastine (4) as fluorescent probe
GST-hPXR-LBD [1] = target: T1, GST-hPXR-LBD (Homo sapiens, UniProt O75469); assay: biochemical; conditions: 30 min
T1 sequence (O75469 146-433 limits assumed): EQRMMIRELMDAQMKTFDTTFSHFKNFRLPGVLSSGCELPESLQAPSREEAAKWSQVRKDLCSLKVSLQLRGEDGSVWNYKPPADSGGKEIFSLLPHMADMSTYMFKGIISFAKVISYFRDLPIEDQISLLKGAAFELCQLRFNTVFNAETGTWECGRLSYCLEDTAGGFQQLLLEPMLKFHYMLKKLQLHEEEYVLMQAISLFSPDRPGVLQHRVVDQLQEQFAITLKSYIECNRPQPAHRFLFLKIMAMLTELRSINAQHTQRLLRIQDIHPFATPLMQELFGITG

GST-hPXR-LBD [2] = target: T1, GST-hPXR-LBD
GST-hPXR-LBD [3] = target: T1, GST-hPXR-LBD; assay: biochemical

## C[C@@H]1C(=O)O[C@H]2C[C@@]34[C@H]5C[C@@H](C(C)(C)C)[C@]36[C@@H](OC(=O)[C@@H]6O)O[C@@]4(C(=O)O5)[C@]21O [ginkgolide A (8), ginkgolide A]
PXR
  IC50: 13.7 µM
GST-hPXR-LBD [1]; IC50 with 50 nM 20, 50 nM BODIPY FL vindoline (20) probe
  IC50: 20.7 µM
GST-hPXR-LBD [1]; IC50 with 100 nM 20, 100 nM BODIPY FL vindoline (20) probe, laboratory assay buffer, 1.1% DMSO
  IC50: 37.7 µM

## Clc1ccccc1C(c1ccccc1)(c1ccccc1)n1ccnc1 [clotrimazole (6), clotrimazole]
PXR
  IC50: 1.94 µM

## CC[C@]1(O)C[C@@H]2CN(CCc3c([nH]c4ccccc34)[C@@](C(=O)OC)(c3cc4c(cc3OC)N(C)[C@H]3[C@@](O)(C(=O)OC)[C@H](OC(C)=O)[C@]5(CC)C=CCN6CC[C@]43[C@@H]65)C2)C1 [vinblastine (10), vinblastine]
PXR
  PXR-specific binding affinity: low PXR-specific binding affinity

## CCC12C=CCN3CC[C@@]4(c5ccc(OC)cc5N(C)[C@H]4[C@@](O)(C(=O)OC)[C@@H]1OC(C)=O)[C@@H]32 (some centres unmarked) [vindoline (14), vindoline]
GST-hPXR-LBD [2]
  inhibitory activity at 100 μM: 93%
GST-hPXR-LBD [3]
  IC50: 12.9 µM
  Ki: 11.2 µM
